Here are results for one compound from US20250127728A1, “Constrained Ionizable Cationic Lipids and Lipid Nanoparticles” (CAPSTAN THERAPEUTICS, INC., priority 2023, published 2025).

Molecules are shown by their SMILES. “Also recorded” adds a separate entry of the source.

One data set relates to splenic T cells. The data set can be described thus: in vivo transfection with mCherry mRNA by CD5-targeted tLNP, splenic T cells. The settings on record: C57BL/6 mice, in words. As for the experimental part: (§1) To assess the ability of a constrained ionizable cationic lipids to facilitate in vivo transfection of T cells with mCherry mRNA (SEQ ID NO. 5), tLNP incorporating CICL-207, or for comparison, CICL-1, and conjugated to an anti-mouse CD5 antibody were prepared and administered to C57BL/6 mice. The tLNP comprised either CICL-207 or CICL-1, DSPC, cholesterol, either DMG-PEG(2000) or DSG-PEG(2000), and DSPE-PEG(2000)-maleimide in the proportions indicated in Table 7 (below) and an N/P ratio of 6. CICL-1 has the structure:
Briefly, to prepare the tLNP, N1-methylpseudouridine (m1ψ)-substituted mCherry mRNA was encapsulated in LNP using a self-assembly process in which an aqueous solution of mRNA at pH 3.5 was rapidly mixed with a solution of lipids dissolved in ethanol, then followed by stepwise phosphate and Tris buffer dilution and tangential flow filtration (TFF) purification. Then an anti-CD5 mAb was conjugated to the above LNP to generate tLNP. Purified rat anti-mouse CD5 antibody, clone 53-7.3 (BioLegend), was coupled to LNP via N-succinimidyl S-acetylthioacetate (SATA)-maleimide conjugation chemistry. Briefly, LNPs with DSPE-PEG(2000)-maleimide incorporated were formulated and stored at 4° C. on the day of conjugation. The antibody was modified with SATA (Sigma-Aldrich) to introduce sulfhydryl groups at accessible lysine residues allowing conjugation to maleimide. SATA was deprotected using 0.5 M hydroxylamine followed by removal of the unreacted components by G-25 Sephadex Quick Spin Protein columns (Roche Applied Science, Indianapolis, IN). The reactive sulfhydryl group on the antibody was then conjugated to maleimide moieties on the LNPs using thioether conjugation chemistry. Purification was performed using Sepharose CL-4B gel filtration columns (Sigma-Aldrich). tLNPs (LNPs conjugated with a targeting antibody) were frozen at −80° C.
The mice were administered tLNPs containing 10 μg of mRNA by tail vein injection and tissue was harvested 24 hours later. […] These same trends have been observed with tLNP comprising CICL-1 as the ionizable lipid (data not shown). The tLNP comprising 58% ionizable cationic lipid had similarly low transfection rates (<4%) for CD45^− liver cells (hepatocytes)(FIG. 1B). […]

A short description of data set [1]: tolerability of F50 LNP: liver enzymes, acute phase proteins, cytokines. The class given is in vivo, Sprague Dawley rats. The conditions noted are these: rats, intravenous, up to 8 mg/kg.
Experimental: A study in which various dosages of undecorated F50 LNP encapsulating mCherry mRNA (up to 8 mg/kg) were administered intravenously to 8-week-old male Sprague Dawley rats (Charles River Laboratories). Liver enzymes in serum were determined (FIGS. 12A-B). Acute phase protein (FIGS. 12C-E) and cytokine levels (FIGS. 12F-H) were assessed in plasma by Luminex assay.
For data set [2], the system named is liver Kupffer cells (CD45+/CD11+ liver cells). The data set can be described thus: in vivo transfection with mCherry mRNA by CD5-targeted tLNP, liver Kupffer cells. The conditions noted are these: C57BL/6 mice, 10 μg mRNA tail vein, 24 hours. The protocol:
as §1
Briefly, to prepare the tLNP, N1-methylpseudouridine (m1ψ)-substituted mCherry mRNA was encapsulated in LNP using a self-assembly process in which an aqueous solution of mRNA at pH 3.5 was rapidly mixed with a solution of lipids dissolved in ethanol, then followed by stepwise phosphate and Tris buffer dilution and tangential flow filtration (TFF) purification. Then an anti-CD5 mAb was conjugated to the above LNP to generate tLNP. […]
Further ionizable cationic lipids according to Formula M2 were incorporated into tLNP and the ability of the tLNP to transfect cells in vivo assessed essentially as described in the preceding Example. Their physicochemical properties as determined in various experiments are compiled in Table 10.

Data set [3] relates to luciferase mRNA expression in liver, spleen and other organs. The data set can be described thus: luciferase biodistribution (organ bioluminescence) of LNP and CD5-targeted tLNP. The class given is in vivo, C57Bl/6 mice. The settings on record: 2 μg mRNA/animal. As for the experimental part: LNP and tLNP with the F9 and F50 composition were prepared as example 66 described, except the payload consisted of mRNA encoding luciferase (SEQ ID NO. 4).
Eight-week-old female C57BI)6 mice (Charles River Laboratories) were intravenously injected with […] or F50 LNPs or CD5-targeted tLNPs encapsulating mRNA encoding luciferase at a dose of 2 μg mRNA/animal via the tail vein. At 6 hours post-injection, prone and supine bioluminescence images were collected from all mice (FIGS. 8A-8B). Following whole-animal imaging, the mice were sacrificed, and the following tissues were collected: liver, spleen, lung, kidneys (both), heart, bone marrow (femur), lymph nodes (left and right inguinal), and brain. Tissues were placed into luciferin pre-filled black polystyrene plates with spacing between tissues, and bioluminescent images were collected at 6 hours and 24 hours post-injection (FIGS. 8C-8D, respectively).

A short description of data set [4]: tolerability of LNP-containing compositions in rat (general statements). The settings on record: tLNP, single doses.

For `CCCCCCCCC(=O)OCC(COC(=O)CCCCCCCC)CC(=O)OC[C@@H]1C[C@@H](OC(=O)CC(COC(=O)CCCCCCCC)COC(=O)CCCCCCCC)CN1C(=O)OCCN(C)C` [CICL-207, 2-(2-(((2S,4R)-1-((2-(dimethylamino)ethoxy)carbonyl)-4-((4-(nonanoyloxy)-3((nonanoyloxy)methyl)butanoyl)oxy)pyrrolidin-2-yl)methoxy)-2-oxoethyl)propane-1,3-diyl dinonanoate], in the data set with splenic T cells, the “effect of ionizable cationic lipid content (50%, 58%, 62%, 65%) on transfection rate” value is “greater for CICL-207 than for CICL-225 in splenic T cells; also recorded: decreased performance”; the “performance of tLNP: transfection rate and expression level (MESF)” value was “best performing composition; also recorded: somewhat more desirable transfection rates”. In data set [1], the tolerability result is given as “well tolerated”. In addition, the “transfection rate for liver Kupffer cells (CD45+/CD11+)” value in data set [2] was “similarly low levels”. For the same compound, the “bioluminescence in non-target organs” value in data set [3] is on record as “generally producing the least bioluminescence”. For the same compound, the “single dose generally well tolerated” value in data set [4] is listed as “at least 8 mg/kg”.
